Laboratory results as given in PubChem BioAssay (NCI).
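In this assay, cells in 96-well plates receive the compound at five concentrations for 48 hours. Endpoints are linearly interpolated between the surrounding concentrations. TGI is the concentration that stops growth completely.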

Legend:
Test in all cases: NCI tumour cell line growth inhibition, 48 h
MOLT-4 leukemia = tested on: MOLT-4 leukemia
RPMI-8226 leukemia = tested on: RPMI-8226 leukemia
SF-539 CNS = tested on: SF-539 CNS
NCI-H460 lung = tested on: NCI-H460 lung
M14 melanoma = tested on: M14 melanoma
SF-295 CNS = tested on: SF-295 CNS
MDA-N = tested on: MDA-N
SW-620 colon = tested on: SW-620 colon
OVCAR-5 ovarian = tested on: OVCAR-5 ovarian
MALME-3M melanoma = tested on: MALME-3M melanoma
HOP-92 NSCLC = tested on: HOP-92 NSCLC
SK-MEL-5 melanoma = tested on: SK-MEL-5 melanoma
HOP-62 NSCLC = tested on: HOP-62 NSCLC
MDA-MB-231 breast = tested on: MDA-MB-231 breast
UACC-62 melanoma = tested on: UACC-62 melanoma
ACHN renal = tested on: ACHN renal
T-47D breast = tested on: T-47D breast
HT29 colon = tested on: HT29 colon
PC-3 prostate = tested on: PC-3 prostate
SK-OV-3 ovarian = tested on: SK-OV-3 ovarian
SN12C renal = tested on: SN12C renal
UO-31 renal = tested on: UO-31 renal
HL-60(TB) leukemia = tested on: HL-60(TB) leukemia
KM12 colon = tested on: KM12 colon
SK-MEL-2 melanoma = tested on: SK-MEL-2 melanoma
786-0 renal = tested on: 786-0 renal
BT-549 breast = tested on: BT-549 breast
SNB-19 CNS = tested on: SNB-19 CNS
NCI/ADR-RES ovarian = tested on: NCI/ADR-RES ovarian
OVCAR-8 ovarian = tested on: OVCAR-8 ovarian
TK-10 renal = tested on: TK-10 renal
RXF 393 renal = tested on: RXF 393 renal
UACC-257 melanoma = tested on: UACC-257 melanoma
MCF7 breast = tested on: MCF7 breast
LOX IMVI melanoma = tested on: LOX IMVI melanoma
NCI-H226 lung = tested on: NCI-H226 lung
OVCAR-4 ovarian = tested on: OVCAR-4 ovarian
HCT-15 colon = tested on: HCT-15 colon
K-562 leukemia = tested on: K-562 leukemia
SF-268 CNS = tested on: SF-268 CNS
HCT-116 colon = tested on: HCT-116 colon
DU-145 prostate = tested on: DU-145 prostate
HCC-2998 colon = tested on: HCC-2998 colon
MDA-MB-435 = tested on: MDA-MB-435
SK-MEL-28 melanoma = tested on: SK-MEL-28 melanoma
NCI-H23 lung = tested on: NCI-H23 lung
COLO 205 colon = tested on: COLO 205 colon
OVCAR-3 ovarian = tested on: OVCAR-3 ovarian
HS 578T breast = tested on: HS 578T breast
CCRF-CEM leukemia = tested on: CCRF-CEM leukemia
A498 renal = tested on: A498 renal
CAKI-1 renal = tested on: CAKI-1 renal
EKVX NSCLC = tested on: EKVX NSCLC
SNB-75 CNS = tested on: SNB-75 CNS
U251 CNS = tested on: U251 CNS
A549 NSCLC = tested on: A549 NSCLC

Measured: TGI

CC(Cl)CC(=O)OCC1CCCN2CCCCC12 (stereo unspecified)
> 100 µM: MOLT-4 leukemia | RPMI-8226 leukemia | SF-539 CNS | NCI-H460 lung | M14 melanoma | SF-295 CNS | MDA-N | SW-620 colon | OVCAR-5 ovarian | MALME-3M melanoma | HOP-92 NSCLC | SK-MEL-5 melanoma | HOP-62 NSCLC | MDA-MB-231 breast | UACC-62 melanoma | ACHN renal | T-47D breast | HT29 colon | PC-3 prostate | SK-OV-3 ovarian | SN12C renal | UO-31 renal | HL-60(TB) leukemia | KM12 colon | SK-MEL-2 melanoma | 786-0 renal | BT-549 breast | SNB-19 CNS | NCI/ADR-RES ovarian | OVCAR-8 ovarian | TK-10 renal | RXF 393 renal | UACC-257 melanoma | MCF7 breast | LOX IMVI melanoma | NCI-H226 lung | OVCAR-4 ovarian | HCT-15 colon | K-562 leukemia | SF-268 CNS | HCT-116 colon | DU-145 prostate | HCC-2998 colon | MDA-MB-435 | SK-MEL-28 melanoma | NCI-H23 lung | COLO 205 colon | OVCAR-3 ovarian | HS 578T breast | CCRF-CEM leukemia | A498 renal | CAKI-1 renal | EKVX NSCLC | SNB-75 CNS | U251 CNS | A549 NSCLC
